The nature of data set [1]: Toxicity in Balb/C nu/nu mouse xenografted with human HeLa cells assessed as change in lung histology at 2.5 umol/kg, iv with photo-irradiation at 30 J/cm2 after 1 hr of compound administration measured after 24 days by H and E staining based analysis. It is filed as organism-based. The following applies: in vivo, 576 h, dose 2.5 µmol/kg, time 24 day.
In data set [2] the test system is HeLa. The data set can be described thus: Induction of ROS production in human HeLa cells upto 200 nM preincubated for 2 hrs followed by H2DCFDA probe exposure for 30 mins and subsequent removal of probe by confocal scanning microscopic analysis. It is filed as functional, cell-based. The following applies: time 2.5 hrs.
In data set [3] the test system is HeLa. The data set can be described thus: Photodynamic cytotoxicity against human HeLa cells assessed as inhibition of cell viability incubated for 3 hrs followed by photo-irradiation at 54 J/cm2 measured after 24 hrs by CCK8 assay. It is filed as functional, cell-based. The following applies: light or radiation study. A general note: Formazan colour is commonly taken as a measure of viable cells.

Data set [4] is described as follows: Toxicity in Balb/C nu/nu mouse xenografted with human HeLa cells assessed as increase in body weight at 2.5 umol/kg, iv with photo-irradiation at 30 J/cm2 after 1 hr of compound administration measured for 24 days. Format: organism-based. The following applies: in vivo, 576 h, dose 2.5 µmol/kg, time 24 day.
In data set [5] the test system is HeLa. Description: Antitumor activity against human HeLa cells xenografted in Balb/C nu/nu mouse assessed as reduction in tumor histology at 2.5 umol/kg, iv with photo-irradiation at 30 J/cm2 after 1 hr of compound administration measured after 24 days by H and E staining based analysis. It is filed as functional, organism-based. The following applies: dose 2.5 µmol/kg, time 24.0 day. A general note: Xenograft models place foreign cells or tissue in a host animal.

The nature of data set [6]: Toxicity in Balb/C nu/nu mouse xenografted with human HeLa cells assessed as change in heart histology at 2.5 umol/kg, iv with photo-irradiation at 30 J/cm2 after 1 hr of compound administration measured after 24 days by H and E staining based analysis. The following applies: in vivo, 576 h, dose 2.5 µmol/kg, time 24 day. Format: organism-based.
Data set [7] in a line: Toxicity in Balb/C nu/nu mouse xenografted with human HeLa cells assessed as drug tolerance at 2.5 umol/kg, iv with photo-irradiation at 30 J/cm2 after 1 hr of compound administration measured for 24 days. The following applies: in vivo, 576 h, dose 2.5 µmol/kg, time 24 day. Format: organism-based.
A short description of data set [8]: Toxicity in Balb/C nu/nu mouse xenografted with human HeLa cells assessed as change in kidney histology at 2.5 umol/kg, iv with photo-irradiation at 30 J/cm2 after 1 hr of compound administration measured after 24 days by H and E staining based analysis. It is filed as organism-based. The following applies: in vivo, 576 h, dose 2.5 µmol/kg, time 24 day.
Data set [9] concerns HepG2. Description: Photodynamic cytotoxicity against human HepG2 cells assessed as inhibition of cell viability incubated for 3 hrs followed by photo-irradiation at 54 J/cm2 measured after 24 hrs by CCK8 assay. The following applies: HepG2, light or radiation study. Format: functional, cell-based.
The nature of data set [10]: Cytotoxicity against human HeLa cells assessed as inhibition of cell viability under dark condition incubated for 27 hrs by CCK8 assay. It is filed as toxicity, cell-based.
Data set [11] is described as follows: Cytotoxicity against HUVEC cells assessed as inhibition of cell viability under dark condition incubated for 27 hrs by CCK8 assay. It is filed as toxicity, cell-based. The following applies: human.
Data set [12] in a line: Drug uptake in human HeLa cells at 5 uM by confocal scanning microscopy. It is filed as ADME, cell-based. The following applies: 3 h, TDE = time-dependent effect.
The nature of data set [13]: Toxicity in Balb/C nu/nu mouse xenografted with human HeLa cells assessed as change in spleen histology at 2.5 umol/kg, iv with photo-irradiation at 30 J/cm2 after 1 hr of compound administration measured after 24 days by H and E staining based analysis. Format: organism-based. The following applies: in vivo, 576 h, dose 2.5 µmol/kg, time 24 day.
The test system of data set [14] is HeLa. The data set can be described thus: Induction of ROS production in human HeLa cells preincubated for 2 hrs followed by H2DCFDA probe exposure for 30 mins and subsequent removal of probe with photo-irradiation at 16 J/cm2 by confocal scanning microscopic analysis. It is filed as functional, cell-based. The following applies: dose <= 200.0 nM, time 2.5 hrs.

The subject of data set [15] is B16-F10. The data set can be described thus: Photodynamic cytotoxicity against mouse B16-F10 cells assessed as inhibition of cell viability incubated for 3 hrs followed by photo-irradiation at 54 J/cm2 measured after 24 hrs by CCK8 assay. It is filed as functional, cell-based. The following applies: B16-F10, light or radiation study.
Data set [16] has as its system HeLa. Description: Antitumor activity against human HeLa cells xenografted in Balb/C nu/nu mouse assessed as tumor growth inhibition at 2.5 umol/kg, iv with photo-irradiation at 30 J/cm2 after 1 hr of compound administration measured for 6 days. It is filed as functional, organism-based. The following applies: dose 2.5 µmol/kg, time 6.0 day.
Data set [17] in a line: Cytotoxicity against mouse B16-F10 cells assessed as inhibition of cell viability under dark condition incubated for 27 hrs by CCK8 assay. Format: toxicity, cell-based.
The subject of data set [18] is HUVEC. Description: Photodynamic cytotoxicity against HUVEC cells assessed as inhibition of cell viability incubated for 3 hrs followed by photo-irradiation at 54 J/cm2 measured after 24 hrs by CCK8 assay. The following applies: Homo sapiens, light or radiation study. Format: functional, cell-based.
Data set [19] is described as follows: Cytotoxicity against human HepG2 cells assessed as inhibition of cell viability under dark condition incubated for 27 hrs by CCK8 assay. It is filed as toxicity, cell-based.
Data set [20] can be described thus: Toxicity in Balb/C nu/nu mouse xenografted with human HeLa cells assessed as change in liver histology at 2.5 umol/kg, iv with photo-irradiation at 30 J/cm2 after 1 hr of compound administration measured after 24 days by H and E staining based analysis. The following applies: in vivo, 576 h, dose 2.5 µmol/kg, time 24 day. It is filed as organism-based.
Data set [21] has as its system HeLa. Description: Antitumor activity against human HeLa cells xenografted in Balb/C nu/nu mouse assessed as tumor growth inhibition at 2.5 umol/kg, iv with photo-irradiation at 30 J/cm2 after 1 hr of compound administration measured for 24 days. Format: functional, organism-based. The following applies: dose 2.5 µmol/kg, time 24.0 day.
Data set [22] in a line: Drug localization in lysosome of human HeLa cells at 5 uM incubated for 30 mins by Lyso-tracker Green DND-26 dye based confocal scanning microscopic analysis. Format: ADME, subcellular. The following applies: 0.5 h.
Data set [23] is described as follows: Drug uptake in human HeLa cells at 5 uM incubated for 3 hrs by confocal scanning microscopy. It is filed as ADME, cell-based.
The nature of data set [24]: Drug localization in endoplasmic reticulum of human HeLa cells at 5 uM incubated for 30 mins by ER-Tracker Green dye based confocal scanning microscopic analysis. The following applies: 0.5 h. It is filed as ADME.
Data set [25] in a line: Drug localization in mitochondria of human HeLa cells at 5 uM incubated for 30 mins by MitoTracker Green FM dye based confocal scanning microscopic analysis. It is filed as ADME. The following applies: 0.5 h.
Data set [26] concerns HeLa. The data set can be described thus: Induction of ROS production in human HeLa cells upto 200 nM preincubated for 2 hrs followed by H2DCFDA probe exposure for 30 mins and subsequent removal of probe with photo-irradiation at 16 J/cm2 by confocal scanning microscopic analysis. The following applies: time 2.5 hrs. Format: functional, cell-based.

The source made the active and inactive calls. The calls are words filed in the database; no cut-off is given here.

For `COc1ccc(C2=[N+]3C(=Nc4c(-c5ccccc5)c5c(n4[B-]3(F)F)-c3ccc(OC)cc3CC5)C(c3ccccc3)=C2I)cc1`, the Activity entry in data set [1], in data set [4], in data set [6], in data set [7], in data set [8] and in data set [13] was “Non-Toxic” throughout. Further, the Activity result in data set [14] was “Dose-Dependent Effect”; in [20] it was “Non-Toxic”. In [2], the result was inactive. For the same compound, the IC50 – broadly, the concentration that gives 50% inhibition – in data set [3] is 62.8 nM; in data set [9], 85.6 nM; in data set [15], 317 nM; in [18], 88.8 nM. In addition, the outcome in data set [5] and in data set [16] was Active. The IC50 at 27 h in [10], in data set [11], in [17] and in data set [19] was more than 50 µM throughout. Also, the Drug uptake result in data set [12] was “Tde”.

In the case of `C=Cc1c(C)c2cc3nc(c(CC(=O)O)c4[nH]c(cc5nc(cc1[nH]2)C(C)=C5CC)c(C)c4C(=O)O)[C@@H](CCC(=O)O)[C@@H]3C` [CHLORIN E6], the Activity entry in data set [1], in data set [4], in data set [6], in data set [7], in [8] and in data set [13] was “Non-Toxic” each time. In data set [20], the Activity result is “Non-Toxic”. The IC50 in data set [3] was found to be 955 nM; in data set [9] it was 599 nM; in data set [15], 2300 nM; in data set [18] it was 799 nM. Moreover, the IC50 at 27 h in data set [10], in data set [11], in data set [17] and in [19] was more than 50 µM each time. Besides, the result in [21] was inactive.

Consider `Br.COc1ccc2c(c1)CCc1c(-c3ccccc3)c3n(c1-2)[B-](F)(F)[N+]1=C(c2ccc(OCC(=O)NCCC[P+](c4ccccc4)(c4ccccc4)c4ccccc4)cc2)C(I)=C(c2ccccc2)C1=N3`, for which, in [2], the outcome was inactive. The IC50 amounted to 5.5 nM in data set [3], 14.3 nM in data set [9], 33.7 nM in data set [15] and 12.2 nM in [18]. The Drug uptake result is reported as “Not Active” in [22]; “Active” in [23]; “Tde” in [12]; “Not Active” in data set [24]; “Active” in data set [25]. Further, the IC50 at 27 h in data set [10] stood at 21.3 µM; in data set [11] it was 20.1 µM; in [17], 44.4 µM; in [19] it was 25.8 µM. For the same compound, in [14], the Activity entry was “Dose-Dependent Effect”. Moreover, the outcome in data set [26] was Active.

As to `COc1ccc2c(c1)CCc1c(-c3ccccc3)c3n(c1-2)[B-](F)(F)[N+]1=C(c2ccc(OCc4cn(CCCNC(=O)c5c(F)c(F)c(F)c(F)c5F)nn4)cc2)C(I)=C(c2ccccc2)C1=N3`, the IC50 in data set [3] stood at 92 nM; in data set [9] it was 179 nM; in [15], 413 nM; in data set [18], 219 nM. The IC50 at 27 h in data set [10], in data set [11], in data set [17] and in [19] was more than 50 µM throughout. The Drug uptake result in data set [12] is given as “Tde”.

On to `COc1ccc2c(c1)CCc1c(-c3ccccc3)c3n(c1-2)[B-](F)(F)[N+]1=C(c2ccc(OCC(=O)NCCCNC(=O)c4c(F)c(F)c(F)c(F)c4F)cc2)C(I)=C(c2ccccc2)C1=N3`, for which the IC50 was 38.2 nM in data set [3], 41.2 nM in data set [9], 74.8 nM in data set [15] and 55.8 nM in data set [18]. Further, the IC50 at 27 h in data set [10], in [11], in data set [17] and in data set [19] was more than 50 µM in each case. The Drug uptake entry in [12] is on record as “Tde”.

Take `COc1ccc2c(c1)CCc1c(-c3ccccc3)c3n(c1-2)[B-](F)(F)[N+]1=C(c2ccc(OCc4cn(CCCN5CCOCC5)nn4)cc2)C(I)=C(c2ccccc2)C1=N3`: the IC50 in data set [3] was determined as 4.8 nM; in [9], 9.1 nM; in data set [15], 10.4 nM; in [18], 11.3 nM. In addition, the IC50 at 27 h in data set [10] is 25.4 µM; in [11] it was more than 50 µM; in data set [17] it was more than 50 µM; in [19], more than 50 µM. Besides, the Drug uptake result in data set [12] was “Tde”.

As for `Br.COc1ccc2c(c1)CCc1c(-c3ccccc3)c3n(c1-2)[B-](F)(F)[N+]1=C(c2ccc(OCc4cn(CCC[P+](c5ccccc5)(c5ccccc5)c5ccccc5)nn4)cc2)C(I)=C(c2ccccc2)C1=N3`, the IC50 in data set [3] worked out at 2 nM; in [9] it was 14.3 nM; in data set [15] it was 21 nM; in data set [18], 13.7 nM. For the same compound, the IC50 at 27 h in [10] came out at 10.6 µM; in data set [11], 12.5 µM; in [17] it was 12.8 µM; in [19], 11.4 µM. The Drug uptake result in [12] is listed as “Tde”.
